Common to all, as to type: physicochemical
The nature of data set [1]: Absorption spectrum measured in solution. The note with it: for λmax (methanol): in methanol; for λmax (methylene chloride): in methylene chloride; for λ1/2-λ1/10 (long wavelength flank): on the long wavelength flank; for λ1/2-λ1/10 (short wavelength flank): on the short wavelength flank. The text has this: In the case of a write-once optical data carrier according to the invention which is written on and read by means of the light of a blue laser, preference is also given to cationic aminoheterocyclic dyes whose absorption maximum λmax2 is in the range from 420 to 550 nm, where the wavelength λ½ at which the absorbance in the short wavelength flank of the absorption maximum at the wavelength λmax2 is half of the absorbance value at λmax2 and the wavelength λ 1/10 at which the absorbance in the short wavelength flank of the absorption maximum at the wavelength λmax2 is one tenth of the absorbance value at λmax2 are preferably not more than 50 nm apart. Such a cationic aminoheterocyclic dye preferably has no shorter-wavelength maximum λmax1 down to a wavelength of 350 nm, particularly preferably down to 320 nm, very particularly preferably down to 290 nm.
In the case of a write-once optical data carrier according to the invention which is written on and read by means of the light of a red laser, preference is given to cationic aminoheterocyclic dyes whose absorption maximum λmax2 is in the range from 500 to 650 nm, where the wavelength λ½ at which the absorbance in the long wavelength flank of the absorption maximum at the wavelength λmax2 is half of the absorbance value at λmax2 and the wavelength λ 1/10 at which the absorbance in the long wavelength flank of the absorption maximum at the wavelength λmax2 is one tenth of the absorbance value at λmax2 are preferably not more than 50 nm apart. Such a cationic aminoheterocyclic dye preferably has no longer-wavelength maximum λmax3 up to a wavelength of 750 nm, particularly preferably up to 800 nm, very particularly preferably up to 850 nm.
The absorption spectra are measured, for example, in solution.
Suitable cationic aminoheterocyclic dyes having the required spectral properties are, in particular, those in which the dipole moment change Δμ=|μg−μag|, i.e. the positive difference between the dipole moments in the ground state and in the first excited state, is very small, preferably <5 D, particularly preferably <2 D. A method of determining such a dipole moment change Ap is described, for example, in F. Wuirthner et al., Angew. Chem. 1997, 109, 2933, and in the literature cited therein. A low solvent-induced wavelength shift (methanol/methylene chloride) is likewise a suitable selection criterion. Preference is given to cationic aminoheterocyclic dyes whose solvent-induced wavelength shift Δλ=|λmethylene chloride−λmethanol|, i.e. the positive difference between the absorption wavelengths in the solvents methylene chloride and methanol, is <25 nm, particularly preferably <15 nm, very particularly preferably <5 nm.

A short description of a further data set: Solubility in TFP.
Another data set is described as follows: Film formation. The text has this: Apart from the abovementioned optical properties, the writeable information layer comprising light-absorbent organic substances has to have a substantially amorphous morphology to keep the noise signal during writing or reading as small as possible. For this reason, it is particularly preferred that crystallization of the light-absorbent substances be prevented in the application of the substances by spin coating from a solution, by vapour deposition and/or sublimation during subsequent covering with metallic or dielectric layers under reduced pressure.

Some results are limits rather than exact numbers.

Regarding `C(=C1/SC(=[N+]2CCOCC2)N=C1c1ccccc1)/c1sc(N2CCOCC2)nc1-c1ccccc1` [Example 1], in data set [1], the “λmax (methanol)” value is 581 nm, the “λmax (methylene chloride)” value is 587 nm, the “λ1/2-λ1/10 (long wavelength flank)” value was found to be 14.5 nm and the “λ1/2-λ1/10 (short wavelength flank)” value was 42 nm. In data set [1] (solvent not stated, printed after λmax in methanol and methylene chloride), the ε is recorded as 102 800 l/mol cm. In addition, the Solubility in “Solubility in TFP” is greater than 2%.
In the case of `CN(C)c1ccc(/C=C/C2=[N+](C)c3ccccc3C2(C)C)o1` [Example 2], the ε in data set [1] (at λmax in methanol) is 87 670 l/mol cm. For the same molecule, in data set [1], the “λmax (methanol)” value was determined as 551 nm, the “λ1/2-λ1/10 (long wavelength flank)” value turned out to be 30 nm and the “λ1/2-λ1/10 (short wavelength flank)” value came to 41 nm. Besides, the Film appearance result in “Film formation” is on record as “Glass-like film”. For the same molecule, the Solubility in “Solubility in TFP” is greater than 2%.
Consider `CCCCN(CCCC)c1ccc(/C=C/C2=[N+](C)c3ccccc3C2(C)C)s1` [Example 3], for which, in data set [1] (at λmax in methanol), the ε is 68 555 l/mol cm. Moreover, in data set [1] (at λmax in methylene chloride), the ε was 98 554 l/mol cm. In data set [1], the “λmax (methanol)” value worked out at 528 nm, the “λmax (methylene chloride)” value worked out at 543 nm, the “λ1/2-λ1/10 (long wavelength flank)” value is 14 nm and the “λ1/2-λ1/10 (short wavelength flank)” value is reported as 34 nm. Besides, in “Film formation”, the Film appearance entry is “Glass-like film”. The Solubility in “Solubility in TFP” is on record as greater than 2%.
As for `CN(C)c1ccc(/C=C2\SC(=[N+]3CCOCC3)N=C2c2ccccc2)cc1` [Example 4], in data set [1] (at λmax in methylene chloride), the ε was 104 970 l/mol cm. Moreover, in data set [1], the “λmax (methylene chloride)” value came out at 601 nm, the “λ1/2-λ1/10 (long wavelength flank)” value is recorded as 19 nm and the “λ1/2-λ1/10 (short wavelength flank)” value is 42 nm. Also, the Solubility in the data set “Solubility in TFP” was greater than 2%.
For the molecule `CC1(C)C2=NC(=[N+]3CCCC3)SC2=Cc2sc(N3CCCC3)nc21` [Example 7], in data set [1] (at λmax in methylene chloride), the ε is 37153 L/mol/cm. In data set [1], the “λmax (methylene chloride)” value stood at 616 nm, the “λ1/2-λ1/10 (long wavelength flank)” value came out at 27 nm and the “λ1/2-λ1/10 (short wavelength flank)” value amounted to 50 nm.
Molecule `CN(c1ccccc1)c1nc2c(s1)C=C1S/C(=[N+](\C)c3ccccc3)N=C1C2(C)C` [Example 8] returned a ε in data set [1] (at λmax in methylene chloride) of 43650 L/mol/cm. Further, the “λmax (methylene chloride)” value in data set [1] is recorded as 623 nm.

Source of the values: patent US20030013041A1, “Optical data carrier comprising a cationic aminoheterocyclic dye as light-absorbent compound in the information layer” (priority 2001, published 2003).
